# Literature values in PMC3986712, “Diclofenac Salts. V. Examples of Polymorphism among Diclofenac Salts with Alkyl-hydroxy Amines Studied by DSC and HSM” (Pharmaceutics, 2010).
# Conditions: free base (counterion), no reference given
structure (smiles),measurement,value
"NC(CO)(CO)CO [TRIS base, Tris-methylol aminomethane]",pKa,7.76
